Legend:
Format in all cases: cell-based
[1] = target: T1, A431 cells EGFR-TK phosphorylation stimulated by EGF (Homo sapiens, UniProt P00533); assay: Inhibition of cellular EGFR-TK phosphorylation stimulated by EGF in A431 cells; details: for inhibition at 3 µM: A-431, concentration of 3 μM, A431 cells, EGF stimulated, one-time measurement at a single concentration (preliminary selection), NA = No activity, read-out: Inhibition Percent (%); for EC50: A431 cells EGFR-TK phosphorylation stimulated by EGF (Table 4)
T1 construct: against A431 cells EGFR-TK; endogenous in cells; host or cells: A431 cells
Description: Inhibition Experiment of Cellular Epidermal Growth Factor Receptor Tyrosine Kinase
1) A431 cells were cultured in a medium which was prepared by adding 10% FCS into another medium comprising 50% DMEM and 50% F12.
2) A431 cells grown in six-well plates were cultured in a serum-free medium for 24 hours. During the 24 hour period the medium was replenished once after 12 hours.
3) A solution containing a compound to be assessed was added the A431 cells and the cells were cultured for 2 hours, supplemented twice by a medium free of the compound, and then EGF (100 ng/well) was added, and cultured for 5 minutes.
4) A431 cell homogenate was prepared by Laemili buffer which comprised 2% sodium dodecyl sulfonate (SDS), 5% 2-mercaptoethanol, 10% glycerol and 5 mM Tris (pH 6.8).
5) The A431 cell homogenate was heated for 5 minutes at 100° C.
6) Proteins in the A431 cell homogenates were separated by PAGE and transferred onto a nitrocellulose membrane, and an infrared reading was obtained.

A431 cells [2] = assay: Cell growth inhibition assay (MTS assay), A431; details: Homo sapiens, A-431; A431 cells; MTS, 48 hours; read-out: Growth inhibition activity EC50
A431 cells [3] = assay: A431 cell growth inhibition assay (MTT assay); details: Homo sapiens; for EC50: A-431, 72 hours (Table 11); for inhibition at 3 µM: A-431, concentration of 3 μM, 72 hours, read-out: Inhibition Percent (%)
Description: A431 Cell Growth Inhibition Assay (MTT Assay)
A431, an epidermoid carcinoma cell line; The Cell Bank, Committee on Type Culture Collection Chinese Academy of Science, Shanghai.
Mix prepared medium DMEM and F12 in the proportion of 1:1, then add FBS to a final concentration of 10%.
Dissolved the dried compound sample with 100% DMSO to 2 mM. Then diluted the dissolved compound to 20 μM with cell complete growth medium.
Prior to the assay, cultured the A431 to logarithmic phase, and then removed medium from cell monolayers and wash the cells once with sterilized PBS. Aspriated the PBS and added 2 mL trypsin solution to cover the cell growth surface, removed 1 mL trypsin solution after soaking about 1 minute. Transferred the cell-culture plate to CO2 incubator; incubated at 37° C. for 8 minutes to allow cells to dissociate. After the cells detached, added 4 mL complete growth medium containing FBS with pipette to disperse them off and mixed gently to obtain a homogeneous cell suspension. Aspirated some of the cell suspension to a sterilized polypropylene tube, and determined the cell concentration by counting in a hematocytometer chamber under a microscope. Adjusted the cell concentration with growth medium to obtain 2.5×10^4 cells per milliliter.
Added 100 μL adjusted cell suspension to the 96-well cell-culture plate and occasionally mixed the cell suspension during the seeding process. After seeding cells, incubated the plate at 37° C. overnight with 5% CO2 in the CO2 incubator for cell attachment.
After the cell attachment, added 100 μL prepared compound solutions to the corresponding wells (add PBS to the ambient wells of the plate). The final compound concentrations ranged from 10 μM to 1.52 nM. Incubated the plate at 37° C. with 5% CO2 for 72 hours in the CO2 incubator.
After the exposure to the compound, removed the cell culture supernatant. Then added 100 μL 0.5 mg/mL MTT solution which dissolved in the growth medium without FBS. Incubated the plate at 37° C. with 5% CO2 for another 4 hours to allow the MTT reaction to proceed.
After the MTT reaction, discarded the MTT reaction solution. Added 100 μL DMSO to each well, and the plate was agitated on the plate shaker for several minutes to dissolve the formazan. Then, detected the absorbance at 490 nm using microplate reader.

BT474 cells = assay: BT-474 cell growth inhibition assay (SRB assay); details: Homo sapiens, concentration of 3 μM, 72 h, read-out: Inhibition Percent (%)
Description: BT-474 Cell Growth Inhibition Assay (SRB Assay)
BT-474 human breast cancer cell lines were kindly provided by Dr. Changnian Liu, Pharmaron Beijing Co., Ltd.
BT-474 cells were cultured in 37° C., 5% CO2, saturated humidity until logarithmic phase. Discarded culture medium, washed cells once by PBS. Added 1 ml Trypsin/EDTA solution, stood at 37° C. for 5 min, allowed the cells to detach. Added culture medium, adjusted the cells density to 1×10^5 cells/ml.
Day 0, added 100 μl/well cells suspension to 96-well cell culture plates. Incubated overnight to let the cells attach completely.
Day 1, compounds (2 mM in DMSO as stock solution) was diluted to 20 μM in EMEM. Then a fourfold serial dilution was made. These diluted compounds were made as 10× reaction solutions, and the concentration of DMSO was kept at 1%.
Added 80 μl culture medium and 20 μl 10× compound reaction solution to the testing wells, or vehicle control to the control wells. Co-incubated cells with compounds for another 72 h.
Day 3, fixed cellular protein by the addition of 100 μl/well of 10% TCA (diluting from 50% TCA) at 4° C. for 1 h. Rinsed TCA using plate washer, and washed five times using distilled water. Removed the residual wash solution with a piece of absorbent paper. Added 100 μl/well 0.4% SRB solution, allowed a 15-30 min staining period. Removed the SRB, and washed the culture plates five times using 1% acetic acid. Removed the residual wash solution with a piece of absorbent paper. Air-dried the culture plates, dissolved the protein-bound dye with 100 μl/well of 10 mM Tris base solution. Shook the plates until the dye was dissolved completely.

T1 sequence (P00533 25-1210): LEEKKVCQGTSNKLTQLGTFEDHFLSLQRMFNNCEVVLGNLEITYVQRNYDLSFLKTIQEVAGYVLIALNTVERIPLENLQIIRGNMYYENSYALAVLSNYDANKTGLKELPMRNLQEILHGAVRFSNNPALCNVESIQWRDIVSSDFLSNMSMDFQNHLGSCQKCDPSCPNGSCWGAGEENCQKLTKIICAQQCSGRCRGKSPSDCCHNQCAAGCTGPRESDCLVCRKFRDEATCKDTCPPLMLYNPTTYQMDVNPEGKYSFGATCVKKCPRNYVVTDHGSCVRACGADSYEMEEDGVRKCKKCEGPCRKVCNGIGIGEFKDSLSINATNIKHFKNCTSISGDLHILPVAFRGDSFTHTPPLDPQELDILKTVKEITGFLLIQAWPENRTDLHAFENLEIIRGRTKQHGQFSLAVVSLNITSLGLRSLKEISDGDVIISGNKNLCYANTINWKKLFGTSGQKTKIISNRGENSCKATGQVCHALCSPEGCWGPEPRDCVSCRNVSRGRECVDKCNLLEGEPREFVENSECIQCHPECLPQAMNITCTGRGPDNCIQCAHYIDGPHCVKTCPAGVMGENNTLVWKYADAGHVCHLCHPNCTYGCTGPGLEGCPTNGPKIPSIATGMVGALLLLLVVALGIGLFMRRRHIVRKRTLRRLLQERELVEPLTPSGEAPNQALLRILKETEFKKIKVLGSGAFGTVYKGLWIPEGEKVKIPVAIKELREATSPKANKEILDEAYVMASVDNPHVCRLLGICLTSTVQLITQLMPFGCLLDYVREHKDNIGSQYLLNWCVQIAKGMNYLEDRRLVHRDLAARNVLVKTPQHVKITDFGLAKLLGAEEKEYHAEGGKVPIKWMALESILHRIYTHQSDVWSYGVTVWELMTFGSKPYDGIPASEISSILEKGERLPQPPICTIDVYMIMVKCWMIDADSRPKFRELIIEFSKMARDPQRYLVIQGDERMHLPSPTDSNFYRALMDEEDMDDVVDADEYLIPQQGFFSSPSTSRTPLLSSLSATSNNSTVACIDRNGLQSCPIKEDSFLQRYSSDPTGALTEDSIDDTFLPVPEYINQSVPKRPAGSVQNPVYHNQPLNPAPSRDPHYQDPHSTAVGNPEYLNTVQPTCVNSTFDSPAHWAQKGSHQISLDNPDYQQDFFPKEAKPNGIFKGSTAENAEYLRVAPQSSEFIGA

Row | Compound | inhibition at 3 µM [1] [%] | EC50 (A431 cells [2]) [nM] | EC50 [1] [nM] | EC50 (A431 cells [3]) [nM] | inhibition at 3 µM (A431 cells [3]) [%] | inhibition at 3 µM (BT474 cells) [%]
1 | O=C(C=C1CCNCC1)Nc1ccc2ncnc(Nc3ccc4[nH]ccc4c3)c2c1 [Example 41, N-(4-(1H-indol-5-ylamino)quinazolin-6-yl)-2-(piperidin-4-ylidene)acetamide] | 71 | 1500 | – | – | – | –
2 | COCCN1CCC(=CC(=O)Nc2cc3c(Nc4ccc(OCc5ccccn5)c(Cl)c4)ncnc3cc2OC)CC1 [Example 118, N-(4-(3-chloro-4-(pyridin-2-ylmethoxy)phenylamino)-7-methoxyquinazolin-6-yl)-2-(1-(2-methoxyethyl)piperidin-4-ylidene)acetamide] | 41 | 1900 | – | – | – | –
3 | O=C(C=C1CCNCC1)Nc1ccc2ncnc(Nc3cccc(Cl)c3)c2c1 [Example 36, N-(4-(3-chlorophenylamino)quinazolin-6-yl)-2-(piperidin-4-ylidene)acetamide] | 57 | 30000 | 980 | – | – | –
4 | C#Cc1cccc(Nc2ncnc3ccc(NC(=O)C=C4CCN(CCOC)CC4)cc23)c1 [Example 7, N-(4-(3-ethynylphenylamino)quinazolin-6-yl)-2-(1-(2-methoxyethyl)piperidin-4-ylidene)acetamide] | 65 | 5000 | 400 | – | – | –
5 | CCOc1cc2ncc(C#N)c(Nc3ccc(OCc4ccccn4)c(Cl)c3)c2cc1NC(=O)C=C1CCNCC1 [Example 143, N-(4-(3-chloro-4-(pyridin-2-ylmethoxy)phenylamino)-3-cyano-7-ethoxyquinolin-6-yl)-2-(piperidin-4-ylidene)acetamide] | 96 | 250 | – | 1450 | 70 | 55
6 | C#Cc1cccc(Nc2ncnc3ccc(NC(=O)C=C4CCNCC4)cc23)c1 [Example 3, N-(4-(3-ethynylphenylamino)quinazolin-6-yl)-2-(piperidin-4-ylidene)acetamide] | 85 | 2000 | 150 | – | – | –
7 | C[C@H](Nc1ncnc2ccc(NC(=O)C=C3CCNCC3)cc12)c1ccccc1 [Example 34, N-(4-((S)-1-phenylethylamino)quinazolin-6-yl)-2-(piperidin-4-ylidene)acetamide] | 68 | 13000 | 760 | – | – | –
8 | COCCOc1cc2ncc(C#N)c(Nc3ccc(OCc4ccccn4)c(Cl)c3)c2cc1NC(=O)C=C1CCNCC1 [Example 165, N-(4-(3-chloro-4-(pyridin-2-ylmethoxy)phenylamino)-3-cyano-7-(2-methoxyethoxy)quinolin-6-yl)-2-(piperidin-4-ylidene)acetamide] | – | – | – | – | 53 | 87
9 | C#Cc1cccc(Nc2c(C#N)cnc3cc(OCC)c(NC(=O)C=C4CCN(C)CC4)cc23)c1 [Example 158, N-(3-cyano-7-ethoxy-4-(3-ethynylphenylamino)quinolin-6-yl)-2-(1-methylpiperidin-4-ylidene)acetamide] | – | – | – | – | 90 | 57
10 | N#Cc1cnc2ccc(N)cc2c1Nc1cccc(Br)c1 [Example 134, 6-amino-4-(3-bromophenylamino)quinoline-3-carbonitrile] | 59 | 900 | – | – | – | –
11 | N#Cc1cnc2ccc(NC(=O)C=C3CCNCC3)cc2c1Nc1ccc(F)c(Cl)c1 [Example 173, N-(4-(3-chloro-4-fluorophenylamino)-3-cyanoquinolin-6-yl)-2-(piperidin-4-ylidene)acetamide] | – | – | – | – | 87 | 44
12 | N#Cc1cnc2ccc(NC(=O)C=C3CCNCC3)cc2c1Nc1ccc(OCc2cccc(F)c2)c(Cl)c1 [Example 168, N-(4-(4-(3-fluorobenzyloxy)-3-chlorophenylamino)-3-cyanoquinolin-6-yl)-2-(piperidin-4-ylidene)acetamide] | – | – | – | – | 41 | 89
13 | C#Cc1cccc(Nc2c(C#N)cnc3ccc(NC(=O)C=C4CCNCC4)cc23)c1 [Example 170, N-(3-cyano-4-(3-ethynylphenylamino)quinolin-6-yl)-2-(piperidin-4-ylidene)acetamide] | – | – | – | – | 88 | 56
14 | C#Cc1cccc(Nc2ncnc3ccc(NC(=O)C=C4CCN(C)CC4)cc23)c1 [Example 4, N-(4-(3-ethynylphenylamino)quinazolin-6-yl)-2-(1-methylpiperidin-4-ylidene)acetamide] | 78 | 1800 | 580 | – | – | –
15 | C#Cc1cccc(Nc2c(C#N)cnc3cc(OCC)c(NC(=O)C=C4CCN(CCOC)CC4)cc23)c1 [Example 159, N-(3-cyano-7-ethoxy-4-(3-ethynylphenylamino)quinolin-6-yl)-2-(1-(2-methoxyethyl)piperidin-4-ylidene)acetamide] | – | – | – | – | 83 | 53
16 | N#Cc1cnc2ccc(NC(=O)C=C3CCNCC3)cc2c1Nc1cccc(Br)c1 [Example 172, N-(4-(3-bromophenylamino)-3-cyanoquinolin-6-yl)-2-(piperidin-4-ylidene)acetamide] | – | – | – | – | 84 | 61
17 | COc1cc2ncc(C#N)c(Nc3cccc(Br)c3)c2cc1NC(=O)C=C1CCNCC1 [Example 155, N-(4-(3-bromophenylamino)-3-cyano-7-methoxyquinolin-6-yl)-2-(piperidin-4-ylidene)acetamide] | – | – | – | – | 90 | 58
18 | CCOc1cc2ncc(C#N)c(Nc3ccc(OCc4cccc(F)c4)c(Cl)c3)c2cc1NC(=O)C=C1CCN(CCOC)CC1 [Example 163, N-(4-(4-(3-fluorobenzyloxy)-3-chlorophenylamino)-3-cyano-7-ethoxyquinolin-6-yl)-2-(1-(2-methoxyethyl)piperidin-4-ylidene)acetamide] | – | – | – | – | 40 | 87
19 | CCOc1cc2ncc(C#N)c(Nc3ccc(OCc4cccc(F)c4)c(Cl)c3)c2cc1NC(=O)C=C1CCNCC1 [Example 145, N-(4-(4-(3-fluorobenzyloxy)-3-chlorophenylamino)-3-cyano-7-ethoxyquinolin-6-yl)-2-(piperidin-4-ylidene)acetamide] | – | – | – | 3400 | 49 | 80
20 | C#Cc1cccc(Nc2ncnc3cc(OCCCOC)c(NC(=O)C=C4CCNCC4)cc23)c1 [Example 50, N-(4-(3-ethynylphenylamino)-7-(3-methoxypropoxy)quinazolin-6-yl)-2-(piperidin-4-ylidene)acetamide] | 95 | 150 | – | – | – | –
